Results on eight test systems are retold here after the supplement of paper PMC6045584.

Compound in assay [1]: T1, O=C(O)C1(C(=O)O)CCC1.[NH2-].[NH2-].[Pt+2] [CARBOPLATIN]
Briefly: surviving fraction relative to DMSO-only wells; higher = less growth inhibition. The following applies: exposure time: 5 days. Summed up:
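In 384-well plates, 250–500 log-phase tumour cells per well were given 24 hours before five days of continuous exposure to inhibitors at 0.5, 1, 5, 10, 50, 100, 500 and 1000 nM. Surviving fraction is luminescence from CellTiter-Glo, normalised to the median of wells containing DMSO alone. Reading took place after 10 minutes at room temperature.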

Compound in assay [2]: T1, CARBOPLATIN
Briefly: area under dose-response curve of surviving fraction (unscaled, Aref=0) (surviving fraction x log10(nM)); higher = more resistant. The following applies: exposure time: 5 days; dose range 0.5-1000 nM. Summed up:
(§1)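 Tumour cell lines in 384-well plates were exposed to eight inhibitor concentrations, from 0.5 to 1000 nM, for five days, and viability was read by CellTiter-Glo luminescence in three screens per line. Signals were normalised to DMSO-only wells, and 3-parameter logistic regression in the drc R package fitted dose-response survival curves to the surviving fractions. Area under the curve is given as the unscaled activity area. That area is taken over log10 dose with Aref = 0.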

Compound in assay [3]: Cc1ccc(-c2cc(C(F)(F)F)nn2-c2ccc(S(N)(=O)=O)cc2)cc1 [CELECOXIB]
The assay is described as above. Conditions: exposure time: 5 days; dose range 0.5-1000 nM. Summed up: as §1

Compound in assay [4]: C[C@]1(O)C[C@@H](c2nc(-c3ccc4ccc(-c5ccccc5)nc4c3)c3c(N)nccn32)C1 [OSI-906]
The description is as above. Conditions: exposure time: 5 days; dose range 0.5-1000 nM. Summed up:
as §1

Compound in assay [5]: CC[C@@]1(O)C(=O)OCc2c1cc1n(c2=O)Cc2cc3ccccc3nc2-1 [CAMPTOTHECIN]
The description is as above. Conditions: exposure time: 5 days; dose range 0.5-1000 nM. Summed up:
as §1

Compound in assay [6]: COCC[n+]1c2c(n(Cc3cnccn3)c1C)C(=O)c1ccccc1C2=O [YM155]
The description is as above. The following applies: exposure time: 5 days; dose range 0.5-1000 nM. Summed up: as §1

Compound in assay [7]: CC(=O)O[C@H]1C(=O)[C@@]2(C)[C@H]([C@H](OC(=O)c3ccccc3)[C@]3(O)C[C@H](OC(=O)[C@H](O)[C@@H](NC(=O)c4ccccc4)c4ccccc4)C(C)=C1C3(C)C)[C@]1(OC(C)=O)CO[C@@H]1C[C@@H]2O [PACLITAXEL]
The description is as above. The following applies: exposure time: 5 days; dose range 0.5-1000 nM. Summed up:
as §1

Compound in assay [8]: CC(=O)c1c(C)c2cnc(Nc3ccc(N4CCNCC4)cn3)nc2n(C2CCCC2)c1=O
Described as above. The following applies: exposure time: 5 days; dose range 0.5-1000 nM. Summed up:
as §1

Compound in assay [9]: COc1cc2ncnc(Nc3ccc(F)c(Cl)c3)c2cc1OCCCN1CCOCC1 [GEFITINIB]
The description is as above. Conditions: exposure time: 5 days; dose range 0.5-1000 nM. Summed up: as §1

Compound in assay [10]: CC(=O)NCC(=O)N1[C@@H]2CC[C@H]1c1ccc(Nc3ncc(C(F)(F)F)c(NC4CCC4)n3)cc12
The description is as above. The following applies: exposure time: 5 days; dose range 0.5-1000 nM. Summed up:
as §1

± gives the standard deviation of the averaged measurements.

As for H23 LUNG, the surviving fraction is 1.06 ± 0.038 in [1] (0.5 nM); 1.08 ± 0.029 in [1] (1 nM); 1.07 ± 0.013 in assay [1] (5 nM); 1.01 ± 0.03 in assay [1] (10 nM); 1.03 ± 0.037 in assay [1] (50 nM); 1.15 ± 0.02 in [1] (100 nM). Moreover, the surviving fraction worked out at 1.09 ± 0.046 in assay [1] (500 nM) and 1.11 ± 0.067 in assay [1] (1000 nM). For the same test system, the “area under dose-response curve” value in assay [2] worked out at 3.55; in [3], 3.59; in assay [4] it was 2.81; in assay [5] it was 1.1; in assay [6] it was 0.646; in assay [7] it was 0.876. For the same test system, the results for the “area under dose-response curve” value in assay [8], in [9] and in assay [10] were 3.51, 2.37 and 2.73, respectively.
In the case of HCT15 LARGE INTESTINE, the surviving fraction in [1] (0.5 nM) is 1.1 ± 0.067; in assay [1] (1 nM), 1.04 ± 0.056; in [1] (5 nM) it was 1.04 ± 0.065; in assay [1] (10 nM) it was 1.03 ± 0.096; in assay [1] (50 nM), 1.06 ± 0.072; in assay [1] (100 nM), 1.09 ± 0.045. Moreover, the results for the surviving fraction in assay [1] (500 nM) and in assay [1] (1000 nM) were 1.06 ± 0.036 and 1.08 ± 0.04, respectively. Besides, the “area under dose-response curve” value in [2] worked out at 3.51; in assay [3], 3.49; in [4] it was 2.9; in assay [5], 0.543; in assay [6] it was 2.03; in [7] it was 1.76. In addition, the “area under dose-response curve” value was 3.59 in assay [8], 3.44 in assay [9] and 2.05 in [10].
On to SG43 HEADNECK, for which the surviving fraction was determined as 1.14 ± 0.14 in assay [1] (0.5 nM); 1.13 ± 0.3 in [1] (1 nM); 0.915 ± 0.18 in [1] (5 nM); 1.15 ± 0.23 in assay [1] (10 nM); 0.826 ± 0.071 in assay [1] (50 nM); 0.996 ± 0.19 in assay [1] (100 nM). Further, the surviving fraction is 0.994 ± 0.16 in assay [1] (500 nM) and 1.07 ± 0.14 in [1] (1000 nM). Further, the “area under dose-response curve” value in [2] was 3.37; in assay [3] it was 3.37; in assay [4] it was 2.7; in assay [5], 2.21; in assay [6], 2.35; in [7], 1.9. The “area under dose-response curve” value in assay [8] turned out to be 2.84; in assay [9], 2.21; in [10], 2.61.
Consider T47D BREAST, for which the surviving fraction came to 1.02 ± 0.049 in assay [1] (0.5 nM); 1.04 ± 0.04 in [1] (1 nM); 1.04 ± 0.083 in [1] (5 nM); 1.01 ± 0.019 in assay [1] (10 nM); 1.05 ± 0.013 in assay [1] (50 nM); 1.05 ± 0.059 in [1] (100 nM). Besides, the surviving fraction in assay [1] (500 nM) came out at 1.05 ± 0.028; in [1] (1000 nM) it was 1.03 ± 0.042. Besides, the “area under dose-response curve” value in assay [2] turned out to be 3.42; in [3], 3.64; in assay [4], 3.09; in assay [5] it was 1.54; in assay [6] it was 1.68; in assay [7] it was 1.04. Also, the “area under dose-response curve” value in [8] came out at 3.62; in assay [9], 3.54; in [10] it was 3.44.
As to G292 BONE, the surviving fraction worked out at 1.01 ± 0.039 in assay [1] (0.5 nM); 1 ± 0.026 in assay [1] (1 nM); 1.07 ± 0.044 in [1] (5 nM); 1.05 ± 0.015 in [1] (10 nM); 1.04 ± 0.064 in assay [1] (50 nM); 1.04 ± 0.029 in [1] (100 nM). Moreover, the surviving fraction in assay [1] (500 nM) is 1.01 ± 0.021; in assay [1] (1000 nM), 1.03 ± 0.064. Moreover, the “area under dose-response curve” value in [2] turned out to be 3.42; in assay [3] it was 3.34; in assay [4] it was 2.59; in [5], 1.35; in [6] it was 1.47; in assay [7], 0.722. The “area under dose-response curve” value is 3.05 in assay [8], 3.36 in assay [9] and 2.24 in assay [10].
As to CAL51 BREAST, the surviving fraction in [1] (0.5 nM) is 0.974 ± 0.023; in assay [1] (1 nM), 0.924 ± 0.08; in assay [1] (5 nM), 0.98 ± 0.018; in assay [1] (10 nM), 0.996 ± 0.017; in [1] (50 nM), 1.03 ± 0.077; in assay [1] (100 nM), 1.02 ± 0.022. Moreover, the surviving fraction in [1] (500 nM) came to 1.09 ± 0.022; in [1] (1000 nM) it was 0.977 ± 0.024. Further, the “area under dose-response curve” value amounted to 3.33 in assay [2]; 3.45 in [3]; 3.16 in assay [4]; 1.36 in assay [5]; 0.772 in assay [6]; 0.546 in assay [7]. Further, the “area under dose-response curve” value was determined as 3.21 in assay [8], 3.42 in [9] and 2.15 in assay [10].
As for 93VU HEADNECK, the surviving fraction in assay [1] (0.5 nM) is 1.19 ± 0.012; in assay [1] (1 nM), 1.13 ± 0.055; in assay [1] (5 nM), 1.26 ± 0.097; in assay [1] (10 nM), 1.24 ± 0.21; in assay [1] (50 nM), 1.27 ± 0.091; in [1] (100 nM), 1.28 ± 0.09. For the same test system, the surviving fraction in [1] (500 nM) is 1.19 ± 0.027; in assay [1] (1000 nM), 1.21 ± 0.1. The “area under dose-response curve” value in assay [2] was 4.03; in assay [3], 3.54; in assay [4], 2.69; in assay [5], 1.8; in assay [6] it was 2.62; in assay [7] it was 1.04. Also, the “area under dose-response curve” value in [8] turned out to be 3.72; in assay [9] it was 2.74; in assay [10], 2.61.
Take CAL120 BREAST: the surviving fraction was found to be 1.02 ± 0.044 in [1] (0.5 nM); 0.927 ± 0.023 in assay [1] (1 nM); 1.02 ± 0.04 in [1] (5 nM); 0.977 ± 0.027 in assay [1] (10 nM); 1.02 ± 0.044 in assay [1] (50 nM); 0.993 ± 0.033 in assay [1] (100 nM). The surviving fraction in assay [1] (500 nM) was 0.986 ± 0.04; in [1] (1000 nM), 0.976 ± 0.034. Besides, the “area under dose-response curve” value is 3.13 in assay [2]; 3.26 in assay [3]; 3 in assay [4]; 1.05 in assay [5]; 0.732 in assay [6]; 0.641 in [7]. The “area under dose-response curve” value was 3.17 in assay [8], 3.22 in assay [9] and 2.64 in assay [10].
